Here are results for six compounds from US8829010B2, “Pyrazolo[3,4-d]pyrimidine compounds and their use as PDE2 inhibitors and/or CYP3A4 inhibitors” (Pfizer Inc., priority 2011, dated 2014).

Data set [1] addresses T1, human full-length PDE2A3 enzyme (Homo sapiens (Human), UniProt O00408). Put plainly: Recombinant human PDE2A3 inhibition by [3H]-cGMP scintillation proximity assay (SPA). The data set is classed as biochemical. Background: Scintillation proximity formats need no separation of bound from free tracer.
For data set [2], the target named is T1, human full-length PDE2A3 enzyme. Conditions: literature values; IC50 values obtained were within 3× of these; read-out: PDE2 IC50, literature values of control compounds; cited from earlier work.
Data set [3] addresses CYP3A4 (Homo sapiens (Human), UniProt P08684). Briefly: biochemical.
In data set [4] the target is CYP3A5 (Homo sapiens (Human), UniProt P20815). Briefly: biochemical.
In data set [5] the target is CYP3A4 versus CYP3A5 (Homo sapiens (Human), UniProt P08684). Briefly: in vitro.
Where [6] appears, read: Geometric mean of 2-5 determinations unless otherwise indicated (a: single determination; b: 7-8 determinations).

Values joined by “and” are separate entries in the source; they are usually repeats but may differ in a detail not shown here. Identical values can stand only once. Like-named read-outs stand apart in the source and are kept apart here.

T1 sequence (O00408 whole entry): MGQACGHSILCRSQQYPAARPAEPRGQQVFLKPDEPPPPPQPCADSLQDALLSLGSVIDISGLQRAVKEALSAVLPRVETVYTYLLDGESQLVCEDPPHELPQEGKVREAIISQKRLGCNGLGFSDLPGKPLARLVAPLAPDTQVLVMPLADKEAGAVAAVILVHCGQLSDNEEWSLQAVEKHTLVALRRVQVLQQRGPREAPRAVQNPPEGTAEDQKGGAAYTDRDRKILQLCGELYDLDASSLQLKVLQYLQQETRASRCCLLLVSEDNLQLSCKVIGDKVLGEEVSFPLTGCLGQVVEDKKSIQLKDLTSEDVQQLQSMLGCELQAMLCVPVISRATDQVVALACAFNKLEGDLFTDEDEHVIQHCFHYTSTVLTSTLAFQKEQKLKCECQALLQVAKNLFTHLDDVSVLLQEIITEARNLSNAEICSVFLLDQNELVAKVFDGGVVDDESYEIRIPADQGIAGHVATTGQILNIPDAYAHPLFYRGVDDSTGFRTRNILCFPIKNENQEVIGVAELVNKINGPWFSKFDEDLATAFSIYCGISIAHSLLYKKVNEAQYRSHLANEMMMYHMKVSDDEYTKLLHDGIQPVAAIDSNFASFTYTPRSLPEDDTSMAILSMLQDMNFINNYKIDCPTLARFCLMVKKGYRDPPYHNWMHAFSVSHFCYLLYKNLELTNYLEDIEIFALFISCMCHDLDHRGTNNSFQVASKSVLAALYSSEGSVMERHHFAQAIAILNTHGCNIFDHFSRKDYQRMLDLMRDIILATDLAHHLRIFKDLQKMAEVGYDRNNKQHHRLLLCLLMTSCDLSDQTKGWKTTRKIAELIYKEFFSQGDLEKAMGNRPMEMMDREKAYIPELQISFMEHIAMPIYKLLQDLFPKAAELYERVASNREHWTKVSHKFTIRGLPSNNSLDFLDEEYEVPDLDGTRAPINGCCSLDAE
Sequence of CYP3A5 (P20815 whole entry): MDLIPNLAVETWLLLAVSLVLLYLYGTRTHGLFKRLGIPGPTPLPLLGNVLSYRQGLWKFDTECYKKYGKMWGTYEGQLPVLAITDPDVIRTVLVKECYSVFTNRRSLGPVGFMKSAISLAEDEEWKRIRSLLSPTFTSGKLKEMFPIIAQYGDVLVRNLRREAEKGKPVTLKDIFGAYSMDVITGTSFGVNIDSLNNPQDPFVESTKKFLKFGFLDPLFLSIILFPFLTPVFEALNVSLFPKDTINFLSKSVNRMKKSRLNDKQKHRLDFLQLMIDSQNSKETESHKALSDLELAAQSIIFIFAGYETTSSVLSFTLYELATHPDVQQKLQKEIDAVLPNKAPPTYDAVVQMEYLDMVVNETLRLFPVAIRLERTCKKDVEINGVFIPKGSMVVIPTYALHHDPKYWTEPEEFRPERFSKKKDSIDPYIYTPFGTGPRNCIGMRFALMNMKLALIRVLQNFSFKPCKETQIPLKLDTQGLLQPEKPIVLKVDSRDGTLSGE
Sequence of CYP3A4 (P08684 whole entry): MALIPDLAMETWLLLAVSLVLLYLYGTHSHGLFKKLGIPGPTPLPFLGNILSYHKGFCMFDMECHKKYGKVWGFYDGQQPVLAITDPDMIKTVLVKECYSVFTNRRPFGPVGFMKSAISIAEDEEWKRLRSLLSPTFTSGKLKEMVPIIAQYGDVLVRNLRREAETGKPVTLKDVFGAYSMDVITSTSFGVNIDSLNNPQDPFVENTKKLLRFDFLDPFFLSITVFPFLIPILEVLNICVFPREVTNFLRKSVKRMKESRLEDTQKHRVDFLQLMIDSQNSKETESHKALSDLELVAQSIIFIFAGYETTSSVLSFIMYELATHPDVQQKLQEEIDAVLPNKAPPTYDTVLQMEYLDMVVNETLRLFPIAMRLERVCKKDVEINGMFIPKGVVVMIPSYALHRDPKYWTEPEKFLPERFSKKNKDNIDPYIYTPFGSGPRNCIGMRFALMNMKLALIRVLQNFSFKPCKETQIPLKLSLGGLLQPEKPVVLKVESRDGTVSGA
Sequence of CYP3A4 versus CYP3A5 (P08684 whole entry): as above

A word on the IC50: it is the concentration at which inhibition is half-maximal. On to “3-[5-(4-chloro-3- fluorophenyl)-1- methyl-1H-pyrazol- 4-yl]-1-methyl-4-[3- (1-methyl-1H- pyrazol-3- yl)azetidin-1-yl]-1H- pyrazolo[3,4- d]pyrimidine [Example 19]”, for which the IC50 in data set [1] was under 2.87 nM. `CCCCCC[C@@H]([C@@H](C)O)n1cnc2c(N)ncnc21` (racemic) [EHNA, erythro-9-(2-hydroxy-3-nonyl) adenine]: the IC50 in data set [2] was 1700 nM.

Regarding `Cc1ccc(-c2c(-c3nn(C)c4ncnc(N5CC[C@H](N6CCCCC6)C5)c34)cnn2C)cc1` [Example 2, 1-Methyl-3-[1-methyl-5-(4-methylphenyl)-1H-pyrazol-4-yl]-4-[(3S)-3-(piperidin-1-yl)pyrrolidin-1-yl]-1H-pyrazolo[3,4-d]pyrimidine], the IC50 is 65.3 nM and 122 nM in data set [3]; 9690 nM in data set [4]. For `Cn1ncc(-c2nn(C)c3ncnc(N4CC(F)C4)c23)c1-c1ccc(C2CC2)cc1` [Example 3, 3-[5-(4-Cyclopropylphenyl)-1-methyl-1H-pyrazol-4-yl]-4-(3-fluoroazetidin-1-yl)-1-methyl-1H-pyrazolo[3,4-d]pyrimidine], the IC50 in data set [1] (setting [6]) was under 1.31 nM. With `COC(=O)NC1CN(c2ncnc3c2c(-c2cnn(C)c2-c2ccc(C4CC4)cc2)nn3C)C1` [Example 23, methyl (1-{3-[5-(4-cyclopropylphenyl)-1-methyl-1H-pyrazol-4-yl]-1-methyl-1H-pyrazolo[3,4-d]pyrimidin-4-yl}azetidin-3-yl)carbamate], the IC50 in data set [1] (setting [6]) is under 2.11 nM. For orientation: inhibition means the percentage by which the read-out fell short of the control. With `CCc1ccc(-c2c(-c3nn(C)c4ncnc(N5CC[C@H](N6CCCCC6)C5)c34)cnn2C)cc1` [Example 56, 3-[5-(4-ethylphenyl)-1-methyl-1H-pyrazol-4-yl]-1-methyl-4-[(3S)-3-(piperidin-1-yl)pyrrolidin-1-yl]-1H-pyrazolo[3,4-d]pyrimidine], the IC50 in data set [3] was 39.7 nM and 71.1 nM; in data set [4], 3470 nM and 6960 nM. The selectivity ratio in data set [5] (probe midazolam) turned out to be 87; in data set [5] (probe testosterone), 98. In data set [1] (at 316 nM, single determination), the inhibition at 0.316 µM was found to be 41%.
